Source: US20140221286A1, “SODIUM CHANNEL BLOCKERS REDUCE GLUCAGON SECRETION” (Gilead Sciences, Inc., priority 2011, published 2014)

Tests used:
rat pancreatic islets [1] = assay: Glucagon secretion in rat pancreatic islets under low glucose (3 mM), ELISA; assay type: cell-based; conditions: 3 mM glucose
α-TC1 clone 9 cells = assay type: cell-based; conditions: for Glucagon Secretion % Inhibition: veratridine-induced (30 μM for 1 hour), at a given concentration (not given)
Protocol: Voltage-dependent block (VDB) of […] was determined by whole-cell voltage-clamp recordings of sodium current using a QPatch 16× automated electrophysiological system in HEK 293 cells overexpressing Nav 1.3 and Nav 1.7 sodium channels, respectively. VDB of peak current was measured using an 8 s conditioning prepulse (to -55 mV for NaV1.3 and to −60 mV for […]) followed by a test pulse (0 mV, 20 ms). Currents are normalized to the peak current recorded in the absence of drug and expressed as percent inhibition. […] Glucagon secretion in the cells was induced by the treatment with veratridine at 30 μM for 1 hour in Krebs-Ringer buffer containing 0.1% BSA. Percent inhibition of glucagon secretion by Na channel blockers was calculated from the reduction of veratridine-induced glucagon secretion in the absence of drug.
Cells were seeded at 0.4×10^5/well in 96-well plates and allowed to recover for 1 day. The media was then changed to serum-free DMEM and incubated overnight. Cells were then treated with sodium-channel blockers in the presence of veratridine (15 μM) in Krebs-Ringer buffer containing 0.1% BSA and 3 mM glucose for 1 h. Supernatants were collected and stored at −80° C. until analysis. Glucagon levels were measured by an ELISA kit.

[2] = tested on: rat isolated pancreatic α-cell; assay: Spontaneous electrical activity of isolated pancreatic α-cells (membrane potential recording); assay type: cell-based
Protocol: Acutely isolated pancreatic islets were allowed to recover overnight at 37° C./5% CO2 in Islet Media (RMPI 1640 supplemented with 10 mM HEPES, 1 mM sodium pyruvate, 10% FBS, 100 U/mL penicillin, 100 μg/mL streptomycin, 2 mM L-glutamine). The islets were resuspended and then centrifuged for 3 minutes at 200×g. […] The number of live cells was counted and diluted to 1×10^5 with Islet Media. […]
Membrane potential and ion channel currents were recorded 24-72 hours after dispersion using the perforated patch configuration. […] Series resistance (Rs) was monitored using a voltage step from −70 mV to 0 mV (5 ms, 0.5 Hz) and was allowed to stabilize prior to beginning the experiment (Rs<30 MOhm).
The identity of the α-cell was confirmed using cell size (membrane capacitance <6 pF) and the presence of electrical activity in low (3 mM) extracellular glucose, which are hallmarks of dispersed α-cells. […] All recordings were made using pClamp 10.2 and were analyzed using Microsoft Excel 2003, Graphpad Prism7 or OriginPro7.
Recordings of membrane potential were made at 32° C. […] Representative records (30 sec) were analyzed using the event detection feature (threshold of 10 mV) to quantitate the spontaneous firing frequency and total charge movement. The membrane potential between events was measured for changes induced by the compound. […]

human pancreatic islets [3] = assay: Glucagon secretion in human pancreatic islets under low glucose (3 mM), ELISA; assay type: cell-based; conditions: 3 mM glucose
rat pancreatic islets [4] = assay: Epinephrine-induced glucagon secretion in rat pancreatic islets; assay type: cell-based; conditions: epinephrine 5 μM; at 30 μM
[5] = tested on: STZ-induced diabetic mice; assay: STZ-induced diabetic mouse, animal model of type 1 diabetes; assay type: in vivo
Protocol: Streptozotocin (STZ) induces diabetes by selectively destroying the pancreatic β-cells. Five-week old male C57BL/6J mice were injected with STZ (40 mg/kg, i.p., dissolved in cold 0.025 mol/L sodium citrate-buffered solution at pH 4.5, freshly made right before injection) for 5 consecutive days to induce diabetes. Fasting plasma glucose (FPG) levels were determined 2 days after STZ treatment. Diabetic mice were then divided into STZ+vehicle and STZ+ranolazine group (10 mice/group) based on body weight (BW) and blood glucose levels. Age and gender matched non-diabetic mice were used as “normal” controls (n=3). For the following 8 weeks, mice were given either vehicle or ranolazine (20 mg/kg in water, p.o., twice daily). BW and FPG levels were monitored once a week. HbA1c levels were measured using a DCA 2000+ clinical analyzer (Siemens) at 0, 4 and 8 weeks of treatment. At the end of the treatment, pancreases from all groups were collected, fixed in 10% formalin overnight and then embedded in paraffin. HE staining and fluorescent staining were performed to review the islet morphology in all groups.

human pancreatic islets [6] = assay: Veratridine-induced glucagon secretion in human pancreatic islets; assay type: cell-based; conditions: veratridine 30 μM
[7] = after 8 weeks treatment, fluorescence staining

Row | Compound | maximal reduction of glucagon secretion as compared to the vehicle control (rat pancreatic islets [1]; at 30 μM) | Glucagon Secretion % Inhibition (α-TC1 clone 9 cells) | reduction of spontaneous electrical activity ([2]; 10 μM) | maximal reduction of glucagon secretion as compared to the vehicle control (human pancreatic islets [3]; at 30 μM) | reduction of epinephrine-induced increase of glucagon secretion (rat pancreatic islets [4]) | fasting plasma glucose (FPG) ([5]; 20 mg/kg p.o. twice daily, week 4) | fasting plasma glucose (FPG) ([5]; 20 mg/kg p.o. twice daily, week 6 to week 8) | HbA1c ([5]; 20 mg/kg p.o. twice daily, week 8) | insulin-positive area per islet [5, 7] | percentage of total islet (insulin and glucagon) area [5, 7] | reduction of veratridine-induced glucagon secretion (human pancreatic islets [6]; at 30 μM) | maximal reduction of glucagon secretion as compared to the vehicle control (rat pancreatic islets [1]; at 3 μM) | reduction of veratridine-induced increase of glucagon secretion (α-TC1 clone 9 cells; veratridine 15 μM, at 3 μM) | reduction of spontaneous electrical activity ([2]; at 0.3 μM) | maximal reduction of glucagon secretion as compared to the vehicle control (human pancreatic islets [3]; at 3 μM) | reduction of veratridine-induced glucagon secretion (human pancreatic islets [6]; at 3 μM)
1 | COc1ccccc1OCC(O)CN1CCN(CC(=O)Nc2c(C)cccc2C)CC1 (racemic) [Ranolazine, ±-N-(2,6-dimethylphenyl)-4-[2-hydroxy-3-(2-methoxyphenoxy)-propyl]-1-piperazineacetamide] | 53±6% | 29.99% | 44% | 36±4% | 44±8% | 264 ± 30 mg/dL | 188 ± 20 mg/dL | 4.6±0.2% | 69±2.4% | 0.30±0.03% | 36±9% |  |  |  |  | 
2 | FC(F)(F)Oc1ccc(-c2ccc3nnc(C(F)(F)F)n3c2)cc1 [Compound A, 6-(4-(trifluoromethoxy)phenyl)-3-(trifluoromethyl)-[1,2,4]triazolo[4,3-α]pyridine] |  | 74.17% |  |  |  |  |  |  |  |  |  | 53±8% | 70±4% | 75% | 51±9% | 58±7%
